Assays:
[1] = test system: phospho-MEK in MM127 cells; experiment: pMEK/tMEK ratio in MM127 melanoma model; format: cell-based; settings: MM127 (NRAS p.G13R, BRAF p.G464E); 100 nM
Procedure: (§1) Compound (drug) treatment: Cells were plated in a 6-well plate at a density of 250,000-300,000 cells/well in 3 mL media and incubated 37° C. in a humidified, 5% CO2 incubator. […] These solutions were added to the cells (3 uL/well), mixed by swirling the plate, and incubated at 37° C. in a humidified, 5% CO2 incubator for 2 hours.
(§2) Cell lysis and protein estimation: Cells were washed with PBS, and scraped in 50 μL of lysis buffer containing protease and phosphatase inhibitors. Cell lysates were stored at −20° C. Cell lysates were thawed and spun at 12,000 rpm for one minute, 3 ul of the supernatant was added to 500 μL of Coomassie blue reagent following by 500 μL of water. […] Protein standards were used (0-20 mg/mL) to calculate protein concentrations of test samples.
(§3) All samples were heated at 95° C. for 5 minutes, cooled to room temperature and spun down. […] After the run, gel was removed and protein transfer was done using iBlot for 7 minutes, as per manufacturer's recommendations. After the transfer, nitrocellulose membrane was incubated on a shaker in 5 mL of blocking buffer at room temperature for 1 hr. The blot was then incubated overnight on a shaker in 5 ml of blocking buffer containing 0.2% Tween-20 and primary antibody, at room temperature. Anti-phospho-STAT3 antibody was used at a dilution of 1:500, the other 3 primary antibodies were used at a dilution of 1:1000.
(§4) Next day, the blot was washed 3 times for 10 min each with 10 mL of TBST followed by incubation on a shaker in 5 ml of blocking buffer containing 0.2% Tween-20 and 0.5 ul of the IRDye labeled secondary antibodies, diluted 1:10000, at room temperature for 1 hr. The blot was then washed 3 times for 10 min each with 10 mL of TBST and dried between sheets of paper towels. Imaging was done using LICOR's Odyssey imaging system, quantitation was done using their software, Image Studio version 3.1.
(§5) The nine models are described in Table 16.

[2] = test system: phospho-MEK in A375 cells; experiment: pMEK/tMEK ratio in A375 melanoma model; format: cell-based; settings: A375 (BRAF p.V600E); 100 nM
Procedure: as §1, §2, §3, §4, §5

[3] = test system: phospho-ERK in MeWo cells; experiment: pERK/tERK ratio in MeWo melanoma model; format: cell-based; settings: MeWo (NF1 LoF); 100 nM
Procedure: as §1, §2, §3, §4, §5

[4] = test system: phospho-MEK in SK-MEL-2 cells; experiment: pMEK/tMEK ratio in SK-MEL-2 melanoma model; format: cell-based; settings: SK-MEL-2 (NRAS p.Q61R); 100 nM
Procedure: as §1, §2, §3, §4, §5

[5] = test system: phospho-MEK in MEL-JUSO cells; experiment: pMEK/tMEK ratio in MEL-JUSO melanoma model; format: cell-based; settings: MEL-JUSO (HRAS p.G13D, NRAS p.Q61L); 100 nM
Procedure: as §1, §2, §3, §4, §5

[6] = test system: phospho-ERK in MM127 cells; experiment: pERK/tERK ratio in MM127 melanoma model; format: cell-based; settings: MM127 (NRAS p.G13R, BRAF p.G464E); 100 nM
Procedure: as §1, §2, §3, §4, §5

[7] = test system: phospho-MEK in MM415 cells; experiment: pMEK/tMEK ratio in MM415 melanoma model; format: cell-based; settings: MM415 (NRAS p.Q61L); 100 nM
Procedure: as §1, §2, §3, §4, §5

[8] = test system: phospho-MEK in SK-MEL-28 cells; experiment: pMEK/tMEK ratio in SK-MEL-28 melanoma model; format: cell-based; settings: SK-MEL-28 (BRAF p.V600E); 100 nM
Procedure: as §1, §2, §3, §4, §5

[9] = test system: phospho-ERK in A375 cells; experiment: Cell-based pERK (pERK:tERK) in A375 cells; settings: A375 (BRAF p.V600E); 100 nM
Procedure: Materials and Methods: A549 or A375 cells were seeded in 6-well plates at an appropriate seeding density on day 0. On day 2 or 3, after checking the health and confluency of cells, the media was aspirated and replaced with 1 mL media containing a predetermined concentration of compound and incubated for 2 hours. After 2 hours, the media was aspirated, and the cells washed 2 times with cold PBS. Cells were lysed on ice, with 50 uL 1×CST lysis buffer +1 mM PMSF for 5 minutes. After 5 minutes, cells were removed using a scraper and transferred to cold 1.5 mL tubes, and centrifuged for 10 min, 4° C., 14,000×g. Supernatant was gently removed and snap frozen in liquid nitrogen. Protein concentration of the lysate was determined using Bradford Reagent (analyzed using SpectraMax M2E) and diluted to 1 mg/mL or pERK or 1.5 mg/mL for pMEK analysis. […] All dilutions were in Milk-free antibody diluent.
A549 or […] cells were treated in duplicate for two hours with compounds at varying concentrations. After two hours, the cells were lysed, snap frozen, and stored at −80° C. After storage, the lysate was quantified with the Bradford assay. Before the lysates were prepared to run on the Jess, the lysates were diluted to 1 mg/mL for pERK analysis and 1.5 mg/mL pMEK analysis using quantitative Western blotting. ERK and MEK phosphorylation levels were estimated by taking the ratio of phospho-protein to total protein and normalizing to the DMSO control.
as §5

[10] = test system: phospho-ERK in MM415 cells; experiment: pERK/tERK ratio in MM415 melanoma model; format: cell-based; settings: MM415 (NRAS p.Q61L); 100 nM
Procedure: as §1, §2, §3, §4, §5

[11] = test system: phospho-ERK in SK-MEL-30 cells; experiment: pERK/tERK ratio in SK-MEL-30 melanoma model; format: cell-based; settings: SK-MEL-30 (NRAS p.Q61K); 100 nM
Procedure: as §1, §2, §3, §4, §5

[12] = test system: phospho-MEK in Hs852.T cells; experiment: pMEK/tMEK ratio in Hs852.T melanoma model; format: cell-based; settings: Hs852.T (NRAS p.G12V); 100 nM
Procedure: as §1, §2, §3, §4, §5

[13] = test system: phospho-MEK in MeWo cells; experiment: pMEK/tMEK ratio in MeWo melanoma model; format: cell-based; settings: MeWo (NF1 LoF); 100 nM
Procedure: as §1, §2, §3, §4, §5

[14] = cited from earlier work
[15] = test system: phospho-ERK in Hs852.T cells; experiment: pERK/tERK ratio in Hs852.T melanoma model; format: cell-based; settings: Hs852.T (NRAS p.G12V); 100 nM
Procedure: as §1, §2, §3, §4, §5

[16] = test system: phospho-ERK in MEL-JUSO cells; experiment: pERK/tERK ratio in MEL-JUSO melanoma model; format: cell-based; settings: MEL-JUSO (HRAS p.G13D, NRAS p.Q61L); 100 nM
Procedure: as §1, §2, §3, §4, §5

[17] = test system: phospho-ERK in SK-MEL-28 cells; experiment: pERK/tERK ratio in SK-MEL-28 melanoma model; format: cell-based; settings: SK-MEL-28 (BRAF p.V600E); 100 nM
Procedure: as §1, §2, §3, §4, §5

[18] = test system: phospho-MEK in SK-MEL-30 cells; experiment: pMEK/tMEK ratio in SK-MEL-30 melanoma model; format: cell-based; settings: SK-MEL-30 (NRAS p.Q61K); 100 nM
Procedure: as §1, §2, §3, §4, §5

[19] = test system: phospho-ERK in SK-MEL-2 cells; experiment: pERK/tERK ratio in SK-MEL-2 melanoma model; format: cell-based; settings: SK-MEL-2 (NRAS p.Q61R); 100 nM
Procedure: as §1, §2, §3, §4, §5

[20] = eLogD (lipophilicity; pH 7.4) by HPLC; format: physicochemical
Procedure: Test compounds were dissolved in DMSO at a concentration of 10 mM and further diluted with methanol:water 1:1. Samples were analyzed using gradient HPLC with three different isocratic mobile phases of 0.25% octanol in methanol (60, 65 and 70%) and 20 mM MOPS buffer (pH 7.4) with decylamine. If needed, (for low E log Doct compounds) the isocratic mobile phases were adjusted to e.g. 40, 45 and 50% methanol. Peaks were detected using a diode array at absorbance 220-320 nm.
Capacity factors data (k′_=(tr−_t0)/t0) obtained at various amounts of methanol were extrapolated to 0% methanol and k′w values are determined using a linear procedure. E log Doct (7.4) is calculated using a series of reference standards with known Log D values. Each experiment was performed in triplicate.

[21] = Kinetic solubility (PBS pH 7.4; 4 hr); format: physicochemical; settings: PBS pH = 7.4; 4 hr (Table 8)
Procedure: The plates were shaken for 4 h at room temperature in an Eppendorf Thermomixer. After incubation, the plates were centrifuged for 20 minutes at 4680 rpm. From the supernatant, 150 μL was transferred to a new 96 well plate and 50 μL DMSO was added to ensure continued dissolution. Samples were measured on LC-UV at injection volumes of 1 and 8 μL. Peak areas were determined and compared to peak areas obtained using calibration curves of the test compounds in DMSO.

[22] = PAMPA (pH 7.4); format: in vitro ADME; settings: pH = 7.4
Procedure: Each stock solution was diluted to 50 M in pH 7.4 Prisma HT buffer (pION) and 200 μl was added to each well of the donor plate in triplicate. The polyvinylidene fluoride (PVDF, 0.45 μm) filter membrane on the acceptor plate was coated with 5 μl gastrointestinal tract lipid formulation (GIT-0, pION) and to each well of the acceptor plate, 200 μl of acceptor sink buffer (pION) was added. The acceptor filter plate was then carefully placed on top of the donor plate to form a sandwich. The sandwich was incubated at 25° C. for 4 h without stirring. UV-vis spectra of the solutions in the blank, reference, acceptor and donor plates were measured using a microplate reader (Tecan Infinite 200PRO M Nano Plus). Permeability values were calculated using the PAMPA explorer software v.

[23] = Mouse liver microsome stability (t1/2, Clint); settings: 1 μM; 0.5 mg/ml microsomal protein
[24] = Human liver microsome stability (t1/2, Clint); settings: 1 μM; 0.5 mg/ml microsomal protein
[25] = test system: phospho-ERK in A549 (KRAS G12S) cells; experiment: Cell-based pERK (pERK:tERK) in A549 cells
Outline: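 A549 cells in 6-well plates were treated with compound at a predetermined concentration for 2 hours at 37 °C. Lysates were then normalised by Bradford protein assay to 1 mg/mL for pERK. Phospho-ERK and total ERK were detected by Western blot with IRDye secondary antibodies and quantified by LI-COR Odyssey imaging.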

[26] = test system: phospho-MEK in A549 cells; experiment: Cell-based pMEK (pMEK:tMEK, CRAF bypass) in A549 cells; settings: 2 h, pMEK to total MEK normalized to DMSO control
Outline: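 Cells (A549 or A375) exposed 2 h to compounds at varying concentrations in duplicate, then lysed; lysates set to 1.5 mg/mL for pMEK by quantitative Western (Jess). Phospho-MEK/total MEK ratio normalized to DMSO control.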

SMILES: Cn1cnc2c(F)c(Nc3ccc(Br)cc3F)c(C(=O)NOCCO)cc21 [Binimetinib]
- pMEK/tMEK ratio normalized to DMSO [1]: 3.009
- pMEK/tMEK ratio normalized to DMSO [2]: 1.062
- pERK/tERK ratio normalized to DMSO [3]: 0.161
- pMEK/tMEK ratio normalized to DMSO [4]: 2.587
- pMEK/tMEK ratio normalized to DMSO [5]: 3.291
- pERK/tERK ratio normalized to DMSO [6]: 0.199
- pMEK/tMEK ratio normalized to DMSO [7]: 3.055
- pMEK/tMEK ratio normalized to DMSO [8]: 1.055
- pERK/tERK ratio normalized to DMSO [9]: 0.136
- pERK/tERK ratio normalized to DMSO [10]: 0.056
- pERK/tERK ratio normalized to DMSO [11]: 0.082
- pMEK/tMEK ratio normalized to DMSO [12]: 6.489
- pMEK/tMEK ratio normalized to DMSO [13]: 7.42
- human plasma drug half-life ([14]; PubChem Compound Summary): 3.5 h
- pERK/tERK ratio normalized to DMSO [15]: 0.203
- pERK/tERK ratio normalized to DMSO [16]: 0.139
- pERK/tERK ratio normalized to DMSO [17]: 0.079
- pMEK/tMEK ratio normalized to DMSO [18]: 2.649
- pERK/tERK ratio normalized to DMSO [19]: 0.125

SMILES: CNS(=O)(=O)Nc1cccc(Cc2c(CN3CCC3)c3cc(Cl)c(OC(=O)N(C)C)cc3oc2=O)c1F [Compound 19]
- eLogD (lipophilicity; pH = 7.4) [20]: 2.9
- Kinetic Solubility (PBS pH = 7.4; 4 hr) [21]: >80 uM
- PAMPA (pH = 7.4; Papp 10^−6 cm/s) [22]: 51 10^−6 cm/s
- Mouse Clint [23]: 26 µL/min/mg
- Mouse Microsome (t1/2 min) [23]: 0.883 h
- Human Clint [24]: 37 µL/min/mg
- Human Microsome (t1/2 min) [24]: 0.633 h
- A549-pERK (10 nM, 2 h) ([25]; 10 nM, 2 h, phospho- to total protein ratio normalized to DMSO control (Table 9)): 59.9
- IC50 ([25]; A549, 12-point dose): 40 to 50 nM
- A549-CRAF BP 100 nM, 2 h [26]: 51.9

SMILES: CNS(=O)(=O)Nc1nccc(Cc2c(C)c3ccc(Oc4ncccn4)cc3oc2=O)c1F [VS-6766]
- mean terminal half-life ([14]; Guo et al Lancet Oncol. 2020): 53.6 h

Reference: US20250179057A1, “MEK IMMUNE ONCOLOGY INHIBITORS AND THERAPEUTIC USES THEREOF” (Immuneering Corporation, priority 2022, published 2025)
